By AC50 is commonly meant the concentration giving half of the maximal activity seen.

Bounds are passed on as bounds.

The target in this test is Transforming acidic coiled-coil-containing protein 3 (Homo sapiens) (UniProt Q9Y6A5). As to the kind of experiment: ARNT/TACC3 interaction disruptors, potency, confirmation, biochemical, AlphaScreen, cherry-picked samples (AID 651703).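 Further: TACC3 partner is the GST-tagged E629A mutant dimer; hits lower the signal meaning they disrupt ARNT binding to TACC3.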 As to conditions: AlphaScreen His-ARNT PAS-B / GST-TACC3 binding, luminescence. In general terms: In Alpha technology, singlet oxygen from a donor bead excites a nearby acceptor bead.
With `N/C(=N\OC(=O)Cc1ccc([N+](=O)[O-])cc1)c1ccccn1`, the AC50 is 21.5 µM.

Turning to `O=C(Nc1nnc(C2=COCCO2)o1)c1ccc([N+](=O)[O-])cc1`, the AC50 was 34.3 µM.

On to `OCCCNc1nc(-c2ccccn2)nnc1-c1ccccc1`, for which the AC50 was under 0.5 µM.

Turning to `c1ccc(-c2cnnc(-c3ccccn3)n2)cc1`, the AC50 was 2.57 µM.

On to `COCc1cc(=O)[nH]c(Nc2nc3ccc(C)cc3o2)n1`, for which the AC50 was 7.59 µM.

Consider `CC(C)(C)c1ccc(CNc2nc(-c3ccccn3)nnc2-c2ccccc2)cc1`, for which the AC50 is 1.33 µM.

As for `CCC(=O)NC(c1cc(Cl)c2cccnc2c1O)C1CC1` (stereo unspecified), the AC50 is 9.34 µM.

`Oc1ccc(Br)cc1/C=N/Nc1ccccn1`: the AC50 was 3.27 µM.

With `CC(Nc1nc(-c2ccccn2)nnc1-c1ccccc1)c1ccccc1` (stereo unspecified), the AC50 is 0.564 µM.

For the compound `O=C(CSc1ccc(-c2ccccn2)nn1)NC1CCCCC1`, the AC50 is 2.56 µM.

Take `COc1ccc(C2C(C#N)=C(N)Oc3n[nH]c(-c4ccccn4)c32)c(OC)c1OC` (stereo unspecified): the AC50 was 53.3 µM.

For the compound `O=C(Nc1nc(-c2ccccn2)cs1)C1CCCC1`, the AC50 is 15.5 µM.

In the case of `O=C(N/N=C(\c1ccccc1)c1cccnc1)c1cccc(F)c1`, the AC50 is 21.7 µM.

With `Cc1[nH]n(-c2ccccc2)c(=O)c1/C=N/NC(=O)COc1ccccc1[N+](=O)[O-]`, the AC50 was 15.8 µM.

In the case of `CN1CCN(C(=O)c2cccc(-c3cc(O)c4ncccc4c3)c2)CC1`, the AC50 was 2.72 µM.

For `C[C@H]1c2cccc(O)c2C(O)=C2C(=O)[C@]3(O)C(O)=C(C(N)=O)C(=O)[C@@H](N(C)C)C3[C@@H](O)C21` (stereo partly specified), the AC50 was 33.5 µM.

For `Cn1c(-c2ccccc2)cnc1Nc1nc(-c2ccccn2)nnc1-c1ccccc1`, the AC50 was 2.26 µM.

As to `O=c1[nH]c(O)c(N=Nc2cc([N+](=O)[O-])ccc2O)c(=O)[nH]1`, the AC50 was 25.5 µM.

Regarding `O=c1cc(C(F)(F)F)nc(-n2[nH]c3c(c2=O)CCCC3)[nH]1`, the AC50 was 28 µM.

In the case of `Cn1c(-c2ccc3c(c2)OCO3)cnc1N`, the AC50 is 39 µM.

`Cc1ccc(Nc2nc(N)nc(CN3CCCCCC3)n2)cc1`: the AC50 was 34.4 µM.

Regarding `O=C(N/N=C/c1cc(Br)ccc1O)C(c1ccncc1)N1CCOCC1` (stereo unspecified), the AC50 is 13.4 µM.

In the case of `Cc1ccc(-n2c(-c3ccc(Br)cc3)c[n+]3c2CCc2ccc4cccnc4c2-3)cc1`, the AC50 is 1.45 µM.

In the case of `c1ccc(-c2nc3cc4ccccc4cc3[nH]2)nc1`, the AC50 is 32.7 µM.

For `COc1ccccc1-c1nnc(NC(=O)c2cccc(N3C(=O)CCC3=O)c2)o1`, the AC50 was 29 µM.

For the compound `Cc1[nH][nH]c(=O)c1C(c1ccc(-c2ccc(F)cc2)o1)c1c(C)[nH][nH]c1=O`, the AC50 was 19.6 µM.

In the case of `COc1cccc(/C=N/Nc2ccnc(=O)[nH]2)c1O`, the AC50 was 9.05 µM.

As for `COc1c(O)cccc1/C=N/NC(=O)Cn1ccnc1C`, the AC50 is 8.02 µM.

With `Cc1oc(C(=O)O)cc1COc1cccc2cccnc12`, the AC50 is 36.6 µM.

`Cc1ncc(CO)c(/C=N/NC(=O)c2cc3c(s2)CCCC3)c1O`: the AC50 is 11.3 µM.

`CC(C)COCc1ccc(O)c2ncccc12`: the AC50 is 3.53 µM.

Take `O=C(NC[C@@H]1[C@H](c2ccccc2)[C@H](CO)N1Cc1ccccn1)C1CCCC1`: the AC50 is 40.7 µM.

Consider `COc1ccc(CCNC(=O)CSc2nnc(Cc3csc(N)n3)n2C)cc1OC`, for which the AC50 is 61 µM.

As for `O=C(N[C@H]1CC[C@H](CCn2cc(-c3ccccn3)nn2)O[C@H]1CO)c1ccncc1`, the AC50 was 14.4 µM.

Take `c1ccc(-c2cnc(Nc3nc(-c4ccccn4)nnc3-c3ccccc3)s2)cc1`: the AC50 is 0.916 µM.

Turning to `c1ccc(-c2ccc(SCc3cccnc3)nn2)nc1`, the AC50 is 1.81 µM.

In the case of `Cc1nnc(SCC(=O)Nc2nnc(-c3ccccc3)o2)s1`, the AC50 was 16.4 µM.

As for `CC(C)Nc1nc(NC(C)C)nc(C(=O)OCCO)n1`, the AC50 is 41.8 µM.

As to `COC(=O)c1ccccc1-c1ccc(C(c2c(C)[nH][nH]c2=O)c2c(C)[nH][nH]c2=O)o1`, the AC50 is 15.7 µM.

`COc1cccc(C2c3[nH]c4ccccc4c3CCN2Cc2ncc[nH]2)c1` (stereo unspecified): the AC50 was 38 µM.

Turning to `O=C(N[C@@H]1CC[C@H](CCn2cc(-c3ccccn3)nn2)O[C@@H]1CO)c1ccncc1`, the AC50 was 8.23 µM.

Take `c1ccc(-c2cccc(CNc3nc(-c4ccccn4)nnc3-c3ccccc3)c2)cc1`: the AC50 was 2.28 µM.

Turning to `O=C(N/N=C/c1cc(Cl)cc(Cl)c1O)c1ccncc1`, the AC50 was 3.58 µM.

In the case of `COc1ccc(NC(=O)CSc2nnc(-c3ccccn3)n2N)cc1`, the AC50 is 13.2 µM.

For the compound `COc1cccc(/C=N/Nc2nc3ccccc3[nH]2)c1O`, the AC50 is 26.6 µM.

With `O=C(Nc1nnc(C2=COCCO2)o1)c1ccc(Cl)cc1`, the AC50 was 17.7 µM.

With `Cc1cccc(OCc2nc(-c3ccccn3)n[nH]2)c1`, the AC50 was 5.94 µM.

As to `Cc1ccc(/C=N/Nc2cn[nH]c(=O)n2)o1`, the AC50 was 26.3 µM.

In the case of `CC(=O)Nc1cccc(C(=O)O)n1`, the AC50 is 12.2 µM.

With `COc1ccc(C2c3ccc(O)cc3Oc3ncn4nc(-c5ccccn5)nc4c32)cc1OC` (stereo unspecified), the AC50 is 52.5 µM.

In the case of `O=C(Nc1nnc(SCc2ccc(F)cc2)s1)c1ccccn1`, the AC50 is 7.06 µM.

Regarding `Cc1cc(NC(=O)CC(C)C)c(=O)n(Cc2ccccc2F)c1`, the AC50 is 9.6 µM.

For the compound `CSCc1cc(N(C)c2ccccc2)nc(-c2ccccn2)n1`, the AC50 was 5.86 µM.

Turning to `CC(C)C1Cc2c(sc3ncnc(NN)c23)CO1` (stereo unspecified), the AC50 is 7.67 µM.

Consider `Cc1ccc2ccc3cccnc3c2n1`, for which the AC50 was 7.33 µM.

Turning to `CCC(=O)NC(c1cc(Cl)c2cccnc2c1O)C(C)C` (stereo unspecified), the AC50 is 5.58 µM.

On to `COc1cc(CCNc2ccc3nnc(-c4ccccc4)n3n2)cc(OC)c1OC`, for which the AC50 is 10.6 µM.

For the compound `Cc1nc2ncccn2c1-c1csc(Nc2ccccc2)n1`, the AC50 is 41.6 µM.

For `Oc1ccc(/C=N/Nc2ncc(Br)cn2)c(O)c1`, the AC50 is 6.19 µM.

As to `COc1ccccc1C(CCNCc1ccc(N(C)C)cc1)c1ccc(OC(C)C)cc1` (stereo unspecified), the AC50 was 7.83 µM.

`c1ccc(-c2nc(-c3ccncc3)n[nH]2)nc1`: the AC50 was 2.79 µM.

Consider `Oc1ccc(CN2CCC(Cc3ccccc3)CC2)c2cccnc12`, for which the AC50 was 2.48 µM.

For `Oc1c(CN2CCN(c3ccccc3)CC2)cc(Br)c2cccnc12`, the AC50 is 1.07 µM.

`Cc1ccc(Nc2nc(-c3ccccn3)nnc2-c2ccccc2)cn1`: the AC50 was under 0.5 µM.

As to `Oc1c(C(Nc2cccc(C(F)(F)F)c2)c2ccncc2)ccc2cccnc12` (stereo unspecified), the AC50 is 0.575 µM.

For `O=S(=O)(N[C@H]1CC[C@H](CCn2cc(-c3ccccn3)nn2)O[C@H]1CO)c1cccc(Cl)c1`, the half-maximal activity concentration (AC50) was 26.6 µM.

Consider `O=c1cc(CSc2ccc(Cl)cc2)nc(-c2ccccn2)[nH]1`, for which the AC50 is 3.69 µM.

Regarding `Cc1cccc(CSc2cccc3cccnc23)c1`, the AC50 is 1.79 µM.

In the case of `O=C(COC(=O)c1ccco1)Nc1nnc(-c2ccccc2)o1`, the AC50 was 24.8 µM.

`Fc1ccc(-c2ccc(CNCc3ccccn3)o2)cc1Cl`: the AC50 was 17.5 µM.

On to `O=C(N[C@H]1CC[C@@H](CCn2cc(-c3ccccn3)nn2)O[C@H]1CO)c1cccnc1`, for which the AC50 was 8.65 µM.

For the compound `Cc1ccc(S(=O)(=O)n2oc(=O)c(C3CCCCC3)c2N)cc1`, the AC50 is 16 µM.

Consider `O=C(COC(=O)c1ccc([N+](=O)[O-])s1)NCc1ccccc1`, for which the AC50 is 37 µM.

For the compound `CSCC[C@H](NC(=O)OC(C)(C)C)C(=O)N/N=C/c1cccc2cccnc12`, the AC50 was 22.9 µM.

Consider `O=S(=O)(N[C@@H]1CC[C@@H](CCn2cc(-c3ccccn3)nn2)O[C@@H]1CO)c1cccc(F)c1`, for which the AC50 was 13.4 µM.

Consider `O=C(CSc1nnc(-c2cccnc2)o1)Nc1nccs1`, for which the AC50 is 17.7 µM.

For the compound `CSc1ccccc1NC(=O)CN(C)C(=O)COc1cccc2cccnc12`, the AC50 was 13.8 µM.

For the compound `c1ccc(-c2nnc(-c3ccccn3)nc2N2CCN(c3ccncc3)CC2)cc1`, the AC50 was under 0.5 µM.

In the case of `O=C(CSc1cccc2cccnc12)Nc1ccc(S(=O)(=O)N2CCOCC2)cc1`, the AC50 was 10.9 µM.

For the compound `Cc1cccc(C)c1Nc1c(-c2ccccn2)nc2ccccn12`, the AC50 is 8.6 µM.

In the case of `OCCN(Cc1cccnc1)Cc1ccccn1`, the AC50 was 2.28 µM.

With `O=C(CSc1ccc(-c2ccccn2)nn1)c1ccc([N+](=O)[O-])cc1`, the AC50 is 4.73 µM.

Consider `COc1ccc(NC(=O)CSc2ccc3nnc(-c4ccccn4)n3n2)cc1`, for which the AC50 is 26.2 µM.

`O=C(Nc1nc(-c2ccccn2)cs1)c1ccc(Cl)s1`: the AC50 was 3.61 µM.

Take `OCC1CCN(c2nc(-c3ccccn3)nnc2-c2ccccc2)CC1`: the AC50 is 1.03 µM.

As to `COc1ccc(Cc2nnc(NN)[nH]c2=O)cc1OC`, the AC50 was 6.72 µM.

Turning to `O=C(Oc1cccc2cccnc12)c1ccco1`, the AC50 is 9.83 µM.

As to `CCCC(=O)NC(c1ccco1)c1cc([N+](=O)[O-])c2cccnc2c1O` (stereo unspecified), the AC50 is 8.21 µM.

`COCc1cc(CN2CCN(C)CC2)c(O)c2ncccc12`: the AC50 is 1.14 µM.

With `O=C(N[C@@H]1CC[C@@H](CCn2cc(-c3ccccn3)nn2)O[C@@H]1CO)c1cccnc1`, the AC50 is 13.1 µM.

With `COc1ccc(NC(=O)N[C@@H]2CC[C@H](CCn3cc(-c4ccccn4)nn3)O[C@@H]2CO)cc1`, the AC50 was 21.5 µM.

Consider `Oc1ccc(Cn2ccnc2)c2cccnc12`, for which the AC50 is under 0.5 µM.

As to `C=C1c2cccc(O)c2C(=O)C2C(=O)[C@]3(O)C(=O)C(C(N)=O)C(=O)[C@@H](N(C)C)[C@@H]3[C@@H](O)[C@H]12` (stereo partly specified), the AC50 was 21.2 µM.

Take `Cc1c(CCO)c(=O)n(-c2ccccc2)n1S(=O)(=O)c1c(Cl)cc(Cl)cc1Cl`: the AC50 was 39.8 µM.

For the compound `Clc1ccc(-c2ccc(CNCc3ccccn3)o2)cc1`, the concentration at half-maximal activity (AC50) was 20 µM.

Regarding `O=C(Nc1nnc(-c2cccs2)o1)c1ccco1`, the AC50 is 48.4 µM.

With `c1ccc(-c2nnc(-c3ccccn3)nc2NCCCN2CCOCC2)cc1`, the half-maximal activity concentration (AC50) is under 0.5 µM.

On to `COc1cc(/C=N/Nc2nn3cnnc3c3ccccc23)ccc1O`, for which the AC50 was 6.83 µM.

Turning to `O=C(CSc1ccc(-c2ccccn2)nn1)NCc1ccccc1`, the AC50 is 4.18 µM.

Take `CCN(CC)c1ccc(Nc2nc(N3CCOCC3)c3ccccc3n2)cc1`: the AC50 was 4.99 µM.

Take `Oc1c(C(c2ccccc2Cl)N2CCCC2)ccc2cccnc12` (stereo unspecified): the AC50 is 1.85 µM.

(Values after PubChem BioAssay AID651703 (Broad Institute, 2012).)
